The conditions of data set [1]: doses of up to 200 mg KC-8 (80 mg oxycodone); cited from earlier work.
A short description of data set [2]: Blood hydromorphone after 1, 3, 6 or 10 pills of PF329 with or without nafamostat in rats. It counts as in vivo. The settings on record: rats, 1, 3, 6 or 10 pills of PF329 containing nafamostat (FIG. 5). The source says:
The rat experiments were repeated with a derivative of hydromorphone (referred to herein as PF329), which is another known pain medication. FIGS. 4 and 5 show the blood concentration of active hydromorphone (HM) after the administration of 1, 3, 6, or 10 pills, either without or with nafamostat.

For data set [3] the following is noted: 200 mg nafamostat; cited from earlier work.
Data set [4] can be described thus: Plasma oxycodone pharmacokinetics after oral KC-8 with or without nafamostat in rats. It is filed as in vivo. Conditions: nafamostat co-administered with an oxycodone or hydromorphone derivative. Here is the method:
The drug nafamostat mesylate was added to the formulations containing the KC-8 oxycodone-derivative. In the examples described herein, the terms “nafamostat mesylate” and “nafamostat” are used interchangeably.
Formulations containing both KC-8 and optionally nafamostat were administered orally to rats. The KC-8 dose was 5 mg/kg and the nafamostat concentration was 0, 0.1, 0.5, or 1 mg/kg. Plasma concentrations of active oxycodone were measured at various time intervals over 24 hours after administration.
In particular, the rats received 50 mg/kg of KC-8 and 0, 1, 5, or 10 mg/kg of nafamostat. With zero nafamostat, blood plasma concentration experienced a maximum of about 22 ng/ml at about 2 hours, wherein the concentration rapidly descended thereafter. In alignment with the data of FIG. 2, higher concentrations of nafamostat reduced the peak concentration to about 3 ng/ml at about 8 hours.

We go through two compounds from patent publication US12599578B2, “Compositions comprising enzyme-cleavable prodrugs and controlled release nafamostat and methods of use thereof” (Ensysce Biosciences Inc., priority 2021, dated 2026).

Read-outs that look alike come from different tables or passages of the source.

On to `COc1ccc2c3c1O[C@H]1C(OC(=O)N(C)CC(C)(C)CNC(=O)[C@H](CCCNC(=N)N)NC(=O)CNC(=O)CC(=O)O)=CC[C@@]4(O)[C@@H](C2)N(C)CC[C@]314` [KC-8, N-1-[3-(oxycodone-6-enol-carbonyl-methyl-amino)-2,2-dimethyl-propylamine]-arginine-glycine-malonic acid], for which, in data set [1], the safety and tolerability entry was “safe and well tolerated”.

Regarding `N=C(N)c1ccc2cc(OC(=O)c3ccc(N=C(N)N)cc3)ccc2c1` [nafamostat, 6-carbamimidoylnaphthalen-2-yl 4-(diaminomethyleneamino)benzoate], in data set [2], the “change of hydromorphone blood concentration on administering more pills” value is “little increase”. The safety and tolerability entry in data set [3] was “safe and well tolerated”. For the same compound, the “effect on maximum concentration of active drug in blood plasma” value in data set [4] was “significantly reduced the maximum concentration of active drug in blood plasma”.
